Molecular target: T1, human enzyme NAMPT (full length) (Homo sapiens, UniProt P43490)
T1 construct: human enzyme NAMPT (full length)
Experiment: NMN fluorescence biochemical assay (stimulation of NMN synthesis by NAMPT)
Conditions: for EC50: NMN synthesis by purified human NAMPT (100 nM), concentration giving half-maximal activation, read-out: Enzymatic EC50; for Enzymatic Emax: fold change of maximal activation compared to DMSO
Protocol: Certain compounds described herein were assayed for their ability to stimulate the synthesis of nicotinamide mononucleotide (NMN) by human enzyme NAMPT (full length). The enzymatic assay was performed in a 384-well plate using a TMD buffer (50 mM Tris-HCl, 10 mM MgCl2, 2 mM DTT, pH 7.5). Purified NAMPT (100 nM) was pre-incubated with 0.2 μL. DMSO solution of the test compound (with a series of concentrations) in 10 μL TMD buffer for 15 min at 37° C. The reaction was initiated by adding 10 μL solution of NAM (50 μM), PRPP (100 μM), and ATP (4 mM) in TMD buffer. After 1 h of incubation at 37 T, an aliquot (20 μL) of the NMN-containing sample was sequentially mixed with 5 μL of 20% acetophenone (in DMSO) and 5 μL of 2M KOH. The mixture was placed on ice for 10 min. Next, 22.5 μL of 100% formic acid was added to each sample, vortexed, and then incubated at 37° C. for 20 min. Fluorescence (Ex/Em=382/445 nm) was measured using an Envision plate reader. The potency measurements for the test compounds were quantified and represented as EC50 (concentration of a compound that gives half-maximal activation) and Emax (fold change of a compound's maximal activation compared to DMSO).

T1 sequence (P43490 whole entry): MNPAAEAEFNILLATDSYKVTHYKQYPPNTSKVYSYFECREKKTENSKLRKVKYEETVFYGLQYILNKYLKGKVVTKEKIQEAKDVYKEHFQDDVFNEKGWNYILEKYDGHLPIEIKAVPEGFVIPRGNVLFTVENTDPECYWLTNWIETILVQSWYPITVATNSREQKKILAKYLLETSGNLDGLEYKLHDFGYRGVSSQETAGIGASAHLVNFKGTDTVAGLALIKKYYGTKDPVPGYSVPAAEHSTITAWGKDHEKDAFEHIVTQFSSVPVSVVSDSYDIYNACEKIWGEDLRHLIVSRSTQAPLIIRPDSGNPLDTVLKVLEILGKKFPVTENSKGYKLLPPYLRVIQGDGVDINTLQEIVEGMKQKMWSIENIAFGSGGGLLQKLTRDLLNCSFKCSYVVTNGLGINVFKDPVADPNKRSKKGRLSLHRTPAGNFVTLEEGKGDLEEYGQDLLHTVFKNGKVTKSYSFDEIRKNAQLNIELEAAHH

Row | Compound | EC50 | Enzymatic Emax
1 | O=C1c2ccccc2C(Cc2cc(F)ccn2)N1Cc1ccc2[nH]c(=O)oc2c1 (stereo not shown) [Compound 233, 6-((1-((4-fluoropyridin-2-yl)methyl)-3-oxoisoindolin-2-yl)methyl)benzo[d]oxazol-2(3H)-one] | 0.5 to 5 µM | B (3≥B>2)
2 | O=C1c2ccccc2C(Cc2ncccc2Br)N1Cc1ccn2cnnc2c1 (stereo not shown) [Compound 239, 2-([1,2,4]triazolo[4,3-a]pyridin-7-ylmethyl)-3-((3-bromopyridin-2-yl)methyl)isoindolin-1-one] | ≥ 5 µM | B (3≥B>2)
3 | CC1c2cccc(-c3cccnc3)c2C(=O)N1Cc1ccc2[nH]c(=O)oc2c1 (stereo not shown) [Compound 244, 6-((1-methyl-3-oxo-4-(pyridin-3-yl)isoindolin-2-yl)methyl)benzo[d]oxazol-2(3H)-one] | ≥ 5 µM | B (3≥B>2)
4 | CC1c2c(cccc2C2CC2)C(=O)N1Cc1ccc2[nH]c(=O)oc2c1 (stereo not shown) [Compound 245, 6-((4-cyclopropyl-3-methyl-1-oxoisoindolin-2-yl)methyl)benzo[d]oxazol-2(3H)-one] | ≥ 5 µM | B (3≥B>2)
5 | Cc1cccc2c1C(C)N(Cc1ccc3[nH]c(=O)oc3c1)C2=O (stereo not shown) [Compound 246, 6-((3,4-dimethyl-1-oxoisoindolin-2-yl)methyl)benzo[d]oxazol-2(3H)-one] | ≥ 5 µM | B (3≥B>2)
6 | CC1c2c(Br)cccc2C(=O)N1Cc1ccc2[nH]c(=O)oc2c1 (stereo not shown) [Compound 247, 6-((4-bromo-3-methyl-1-oxoisoindolin-2-yl)methyl)benzo[d]oxazol-2(3H)-one] | ≥ 5 µM | B (3≥B>2)
7 | Cc1conc1CC1c2ccccc2C(=O)N1Cc1ccc2[nH]c(=O)oc2c1 (stereo not shown) [Compound 248, 6-((1-((4-methylisoxazol-3-yl)methyl)-3-oxoisoindolin-2-yl)methyl)benzo[d]oxazol-2(3H)-one] | 0.5 to 5 µM | A (A>3)
8 | Cn1cnc(CC2c3ccccc3C(=O)N2Cc2ccc3[nH]c(=O)oc3c2)c1Cl (stereo not shown) [Compound 249, 6-((1-((5-chloro-1-methyl-1H-imidazol-4-yl)methyl)-3-oxoisoindolin-2-yl)methyl)benzo[d]oxazol-2(3H)-one] | < 0.5 µM | A (A>3)
9 | Cn1cc(Cl)c(CC2c3ccccc3C(=O)N2Cc2ccc3[nH]nnc3c2)n1 (stereo not shown) [Compound 250, 2-((1H-benzo[d][1,2,3]triazol-5-yl)methyl)-3-((4-chloro-1-methyl-1H-pyrazol-3-yl)methyl) isoindolin-1-one] | < 0.5 µM | B (3≥B>2)
10 | Cn1ncc(Cl)c1CC1c2ccccc2C(=O)N1Cc1ccc2[nH]c(=O)oc2c1 (stereo not shown) [Compound 251, 6-((1-((4-chloro-1-methyl-1H-pyrazol-5-yl)methyl)-3-oxoisoindolin-2-yl)methyl)benzo[d]oxazol-2(3H)-one] | < 0.5 µM | A (A>3)
11 | O=C1c2ccccc2C(CC2CCCC2)N1Cc1ccc2[nH]c(=O)oc2c1 (stereo not shown) [Compound 252, 6-((1-(cyclopentylmethyl)-3-oxoisoindolin-2-yl)methyl)benzo[d]oxazol-2(3H)-one] | 0.5 to 5 µM | B (3≥B>2)
12 | NC(=O)c1ccc(CC2c3ccccc3C(=O)N2Cc2ccc3[nH]c(=O)oc3c2)cc1 (stereo not shown) [Compound 253, 4-((3-oxo-2-((2-oxo-2,3-dihydrobenzo[d]oxazol-6-yl)methyl)isoindolin-1-yl)methyl) benzamide] | ≥ 5 µM | A (A>3)
13 | COc1nc2cc(CN3C(=O)c4ccccc4C3Cc3ncccc3Br)ccc2[nH]1 (stereo not shown) [Compound 254, 3-((3-bromopyridin-2-yl)methyl)-2-((2-methoxy-1H-benzo[d]imidazol-5-yl)methyl) isoindolin-1-one] | 0.5 to 5 µM | B (3≥B>2)
14 | O=C1c2ccccc2C(Cc2ncccc2Br)N1Cc1ccc2[nH]c(Cl)nc2c1 (stereo not shown) [Compound 255, 3-((3-bromopyridin-2-yl)methyl)-2-((2-chloro-1H-benzo[d]imidazol-5-yl)methyl) isoindolin-1-one] | 0.5 to 5 µM | A (A>3)

Source: US20260078130A1, “NAMPT MODULATORS, PREPARATIONS, AND USES THEREOF” (SIRONAX LTD., priority 2022, published 2026)
